Experimental data from patent US10377753B2, “Substituted 4-azaindoles and their use as GluN2B receptor modulators” (Janssen Pharmaceutica NV, priority 2015, dated 2019).
Structures can show the parent of a compound that is named as a salt.

Molecular target: cloned human NR1/NR2B ion channels (Homo sapiens (Human), UniProt Q05586+Q13224)
Experiment: HNR2BC: effects of test articles on cloned human NR1/NR2B ion channels expressed in mammalian cells (FLIPR calcium flux)
Type: cell-based
Conditions: cloned human NR1/NR2B, Table 5
Method: HNR2BC: Effects of Test Articles on Cloned Human NR1/NR2B Ion Channels Expressed in Mammalian Cells
NMDA receptors are ion channels that are highly permeable to Ca^2+ ions, rendering it possible to monitor NMDA receptor function using cell-based calcium flux assay. In this assay, co-agonists glutamate and glycine are added to cells heterologously expressing human GluN1/GluN2B NMDA receptors to initiate cellular Ca^2+ influx. The time course of the changes in intracellular calcium is measured using a fluorescent dye and a FLIPR (Fluorometric Imaging Plate Reader) device.
Twenty four hours before measurements, the expression of the NMDA receptors in the stable cell line is induced with Tet-On inducible system in the presence of a non-selective NMDA receptor blocker. On the day of the experiment, cell culture media is carefully washed and the cells are loaded with Calcium 5 Dye Kit (Molecular Devices) in dye loading buffer containing 137 mM NaCl, 4 mM KCl, 2 mM CaCl2, 0.5 mM MgCl2, 10 mM HEPES and 5 mM D-glucose; pH 7.4. After 1 h incubation at the room temperature, the dye is washed away with the assay buffer (137 mM NaCl, 4 mM KCl, 2 mM CaCl2, 0.01 mM EDTA, 10 mM HEPES and 5 mM D-glucose; pH 7.4) In the FLIPR TETRA reader, various concentrations of the test compounds are added to the cells for 5 min while fluorescence is monitored to detect potential agonist activity. Next, co-agonists, glutamate and glycine are added for another 5 minutes. The concentration of glutamate corresponding to ˜EC80 is used to maximize the assay's signal window and ability to detect NMDA receptor antagonists and negative allosteric modulators. A saturating concentration (10 μM) of glycine is also present in the assay. […] The fluorescent signal in the presence of test compounds is quantified and normalized to the signal defined by the appropriate control wells.

Sequence of cloned human NR1/NR2B ion channels (Q13224 27-1484, other chains not shown): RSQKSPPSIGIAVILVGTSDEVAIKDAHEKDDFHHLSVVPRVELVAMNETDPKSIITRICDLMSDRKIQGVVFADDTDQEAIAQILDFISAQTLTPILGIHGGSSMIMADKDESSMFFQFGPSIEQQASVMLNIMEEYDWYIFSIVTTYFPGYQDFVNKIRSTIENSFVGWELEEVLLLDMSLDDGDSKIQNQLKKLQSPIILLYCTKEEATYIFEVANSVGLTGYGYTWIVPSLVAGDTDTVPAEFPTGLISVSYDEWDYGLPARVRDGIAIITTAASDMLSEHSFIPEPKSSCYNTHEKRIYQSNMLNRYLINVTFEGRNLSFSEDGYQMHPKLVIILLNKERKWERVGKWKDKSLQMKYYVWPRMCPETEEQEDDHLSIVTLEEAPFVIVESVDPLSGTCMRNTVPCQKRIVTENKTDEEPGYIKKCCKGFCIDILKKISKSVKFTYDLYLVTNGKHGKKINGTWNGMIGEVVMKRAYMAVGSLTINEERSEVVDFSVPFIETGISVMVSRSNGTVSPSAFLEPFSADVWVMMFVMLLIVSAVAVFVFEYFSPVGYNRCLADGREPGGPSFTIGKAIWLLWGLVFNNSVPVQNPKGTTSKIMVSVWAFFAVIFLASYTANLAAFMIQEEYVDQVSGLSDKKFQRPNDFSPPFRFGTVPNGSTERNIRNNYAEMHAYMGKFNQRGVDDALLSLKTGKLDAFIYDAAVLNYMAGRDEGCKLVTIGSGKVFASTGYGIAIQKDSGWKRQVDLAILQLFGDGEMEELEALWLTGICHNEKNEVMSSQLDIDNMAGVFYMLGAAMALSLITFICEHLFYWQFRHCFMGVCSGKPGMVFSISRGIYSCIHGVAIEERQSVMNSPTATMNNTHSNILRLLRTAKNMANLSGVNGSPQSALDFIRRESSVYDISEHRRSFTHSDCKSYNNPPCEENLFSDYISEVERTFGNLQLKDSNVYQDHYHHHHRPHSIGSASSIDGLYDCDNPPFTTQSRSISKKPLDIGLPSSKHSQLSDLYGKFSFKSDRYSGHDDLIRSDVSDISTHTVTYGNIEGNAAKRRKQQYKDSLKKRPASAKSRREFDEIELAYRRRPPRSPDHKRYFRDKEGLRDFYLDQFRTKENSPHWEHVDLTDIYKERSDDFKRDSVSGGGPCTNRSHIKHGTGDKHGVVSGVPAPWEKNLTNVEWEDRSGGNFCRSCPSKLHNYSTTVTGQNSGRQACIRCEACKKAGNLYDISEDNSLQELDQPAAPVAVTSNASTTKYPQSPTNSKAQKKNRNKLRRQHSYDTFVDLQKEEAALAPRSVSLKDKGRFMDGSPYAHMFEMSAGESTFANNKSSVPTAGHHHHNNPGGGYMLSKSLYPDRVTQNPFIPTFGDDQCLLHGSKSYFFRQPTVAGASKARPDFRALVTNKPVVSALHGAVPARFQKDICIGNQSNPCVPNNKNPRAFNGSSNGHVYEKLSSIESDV

IC50 | SMILES
39.8 nM | O=C(Cn1cc(Cl)c2ncc(-c3ccc(F)c(F)c3F)cc21)N1CC(F)(F)C1 [Example 50, 2-[3-Chloro-6-(2,3,4-trifluorophenyl)pyrrolo[3,2-b]pyridin-1-yl]-1-(3,3-difluoroazetidin-1-yl)ethanone]
63.1 nM | Cc1cccc(-c2cnc3cc(C)n(CC(=O)NC4CC4)c3c2)c1 [Example 51, N-Cyclopropyl-2-[2-methyl-6-(m-tolyl)pyrrolo[3,2-b]pyridin-1-yl]acetamide]
1260 nM | Cc1cc2ncc(-c3ccccc3)cc2n1CC(=O)N1CCOCC1 [Example 52, 2-(2-Methyl-6-phenyl-pyrrolo[3,2-b]pyridin-1-yl)-1-morpholino-ethanone]
5010 nM | Cc1cccc(-c2cnc3c(Cl)cn(CC(=O)N4CC(F)(F)C4)c3c2)c1 [Example 53, 2-[3-Chloro-6-(m-tolyl)pyrrolo[3,2-b]pyridin-1-yl]-1-(3,3-difluoroazetidin-1-yl)ethanone]
63.1 nM | Cc1cccc(-c2cnc3c(Cl)cn(CC(=O)N4CC(F)C4)c3c2)c1 [Example 54, 2-[3-Chloro-6-(m-tolyl)pyrrolo[3,2-b]pyridin-1-yl]-1-(3-fluoroazetidin-1-yl)ethanone]
31.6 nM | O=C(Cn1cc(Cl)c2ncc(-c3ccccc3)cc21)N1CC(F)(F)C1 [Example 55, 2-(3-Chloro-6-phenyl-pyrrolo[3,2-b]pyridin-1-yl)-1-(3,3-difluoroazetidin-1-yl)ethanone]
50.1 nM | O=C(Cn1cc(Cl)c2ncc(-c3ccccc3)cc21)N1CC(F)C1 [Example 56, 2-(3-Chloro-6-phenyl-pyrrolo[3,2-b]pyridin-1-yl)-1-(3-fluoroazetidin-1-yl)ethanone]
31.6 nM | O=C(Cn1cc(Cl)c2ncc(-c3ccc(F)cc3)cc21)N1CC(F)(F)C1 [Example 57, 2-[3-Chloro-6-(4-fluorophenyl)pyrrolo[3,2-b]pyridin-1-yl]-1-(3,3-difluoroazetidin-1-yl)ethanone]
25.1 nM | O=C(Cn1cc(Cl)c2ncc(-c3ccc(F)cc3)cc21)N1CC(F)C1 [Example 58, 2-[3-Chloro-6-(4-fluorophenyl)pyrrolo[3,2-b]pyridin-1-yl]-1-(3-fluoroazetidin-1-yl)ethanone]
39.8 nM | Cc1cc(Cn2ccc3ncc(-c4ccc(F)cc4C)cc32)no1 [Example 59, 3-[[6-(4-Fluoro-2-methyl-phenyl)pyrrolo[3,2-b]pyridin-1-yl]methyl]-5-methyl-isoxazole]
100 nM | Cc1cc(Cn2ccc3ncc(-c4cccc(C(F)(F)F)c4)cc32)no1 [Example 60, 5-Methyl-3-[[6-[3-(trifluoromethyl)phenyl]pyrrolo[3,2-b]pyridin-1-yl]methyl]isoxazole]
398 nM | Cc1cccc(-c2cnc3ccn(Cc4cc(C)on4)c3c2)c1 [Example 61, 5-Methyl-3-[[6-(m-tolyl)pyrrolo[3,2-b]pyridin-1-yl]methyl]isoxazole trifluoroacetate salt]
126 nM | Cc1cc(Cn2ccc3ncc(-c4ccccc4C)cc32)no1 [Example 62, 5-Methyl-3-[[6-(o-tolyl)pyrrolo[3,2-b]pyridin-1-yl]methyl]isoxazole trifluoroacetate salt]
200 nM | Cc1cc(Cn2ccc3ncc(-c4ccc(F)c(C)c4)cc32)no1 [Example 63, 3-[[6-(4-Fluoro-3-methyl-phenyl)pyrrolo[3,2-b]pyridin-1-yl]methyl]-5-methyl-isoxazole trifluoroacetate salt]
63.1 nM | Cc1cc(Cn2ccc3ncc(-c4cc(F)cc(F)c4)cc32)no1 [Example 64, 3-[[6-(3,5-Difluorophenyl)pyrrolo[3,2-b]pyridin-1-yl]methyl]-5-methyl-isoxazole trifluoroacetate salt]
79.4 nM | Cc1cc(Cn2ccc3ncc(-c4ccc(F)cc4)cc32)no1 [Example 65, 3-[[6-(4-Fluorophenyl)pyrrolo[3,2-b]pyridin-1-yl]methyl]-5-methyl-isoxazole trifluoroacetate salt]
200 nM | Cc1cc(-c2cnc3ccn(CC(=O)NC4CCC4)c3c2)ccc1F [Example 66, N-Cyclobutyl-2-[6-(4-fluoro-3-methyl-phenyl)pyrrolo[3,2-b]pyridin-1-yl]acetamide trifluoroacetate salt]
39.8 nM | Cc1cc(-c2cnc3c(Br)cn(CC(=O)N4CCC4)c3c2)ccc1F [Example 68, 1-(Azetidin-1-yl)-2-[3-bromo-6-(4-fluoro-3-methyl-phenyl)pyrrolo[3,2-b]pyridin-1-yl]ethanone]
25.1 nM | Cc1cc(-c2cnc3c(F)cn(CC(=O)N4CCC4)c3c2)ccc1F [Example 69, 1-(Azetidin-1-yl)-2-[3-fluoro-6-(4-fluoro-3-methyl-phenyl)pyrrolo[3,2-b]pyridin-1-yl]ethanone]
50.1 nM | Cc1cc(-c2cnc3ccn(CC(=O)O)c3c2)ccc1F [Example 70, 2-[6-(4-Fluoro-3-methyl-phenyl)pyrrolo[3,2-b]pyridin-1-yl]acetic acid]

IC50 | SMILES
7940 nM | O=C(Cn1ccc2ncc(-c3ccccc3F)cc21)N1CCC1 [Example 71, 1-(azetidin-1-yl)-2-[6-(2-fluorophenyl)pyrrolo[3,2-b]pyridin-1-yl]ethanone]
251 nM | O=C(Cn1ccc2ncc(-c3cccc(F)c3)cc21)N1CCC1 [Example 72, 1-(Azetidin-1-yl)-2-[6-(3-fluorophenyl)pyrrolo[3,2-b]pyridin-1-yl]ethanone]
39.8 nM | Cc1ccc(-c2cnc3ccn(CC(=O)N4CCC4)c3c2)cc1 [Example 73, 1-(Azetidin-1-yl)-2-[6-(p-tolyl)pyrrolo[3,2-b]pyridin-1-yl]ethanone]
200 nM | CCc1cccc(-c2cnc3ccn(CC(=O)N4CCC4)c3c2)c1 [Example 74, 1-(Azetidin-1-yl)-2-[6-(3-ethylphenyl)pyrrolo[3,2-b]pyridin-1-yl]ethanone]
50.1 nM | O=C(Cn1ccc2ncc(-c3ccccc3F)cc21)NC1CC1 [Example 75, N-Cyclopropyl-2-[6-(2-fluorophenyl)pyrrolo[3,2-b]pyridin-1-yl]acetamide]
1000 nM | O=C(Cn1ccc2ncc(-c3cccc(F)c3)cc21)NC1CC1 [Example 76, N-Cyclopropyl-2-[6-(3-fluorophenyl)pyrrolo[3,2-b]pyridin-1-yl]acetamide]
251 nM | Cc1ccc(-c2cnc3ccn(CC(=O)NC4CC4)c3c2)cc1 [Example 77, N-Cyclopropyl-2-[6-(p-tolyl)pyrrolo[3,2-b]pyridin-1-yl]acetamide]
1580 nM | O=C(Cn1ccc2ncc(-c3ccccc3)cc21)N1CCCC1 [Example 78, 2-(6-Phenylpyrrolo[3,2-b]pyridin-1-yl)-1-pyrrolidin-1-yl-ethanone]
79.4 nM | O=C(Cn1ccc2ncc(-c3ccccc3F)cc21)N1CCCC1 [Example 79, 2-[6-(2-Fluorophenyl)pyrrolo[3,2-b]pyridin-1-yl]-1-pyrrolidin-1-yl-ethanone]
316 nM | O=C(Cn1ccc2ncc(-c3ccc(F)cc3)cc21)N1CCCC1 [Example 80, 2-[6-(4-Fluorophenyl)pyrrolo[3,2-b]pyridin-1-yl]-1-pyrrolidin-1-yl-ethanone]
316 nM | Cc1cccc(-c2cnc3ccn(CC(=O)N4CCCC4)c3c2)c1 [Example 81, 2-[6-(m-Tolyl)pyrrolo[3,2-b]pyridin-1-yl]-1-pyrrolidin-1-yl-ethanone]
63.1 nM | Cc1ccc(-c2cnc3ccn(CC(=O)N4CCCC4)c3c2)cc1 [Example 82, 2-[6-(p-Tolyl)pyrrolo[3,2-b]pyridin-1-yl]-1-pyrrolidin-1-yl-ethanone]
251 nM | CCc1cccc(-c2cnc3ccn(CC(=O)N4CCCC4)c3c2)c1 [Example 83, 2-[6-(3-Ethylphenyl)pyrrolo[3,2-b]pyridin-1-yl]-1-pyrrolidin-1-yl-ethanone]
79.4 nM | O=C(Cn1ccc2ncc(-c3cccc(F)c3)cc21)N1CCCC1 [Example 84, 2-[6-(3-Fluorophenyl)pyrrolo[3,2-b]pyridin-1-yl]-1-pyrrolidin-1-yl-ethanone]
63.1 nM | O=C(Cn1ccc2ncc(-c3ccccc3)cc21)N1CCOCC1 [Example 85, 1-Morpholino-2-(6-phenylpyrrolo[3,2-b]pyridin-1-yl)ethanone]
501 nM | O=C(Cn1ccc2ncc(-c3ccccc3F)cc21)N1CCOCC1 [Example 86, 2-[6-(2-Fluorophenyl)pyrrolo[3,2-b]pyridin-1-yl]-1-morpholino-ethanone]
1000 nM | O=C(Cn1ccc2ncc(-c3cccc(F)c3)cc21)N1CCOCC1 [Example 87, 2-[6-(3-Fluorophenyl)pyrrolo[3,2-b]pyridin-1-yl]-1-morpholino-ethanone]
251 nM | O=C(Cn1ccc2ncc(-c3ccc(F)cc3)cc21)N1CCOCC1 [Example 88, 2-[6-(4-Fluorophenyl)pyrrolo[3,2-b]pyridin-1-yl]-1-morpholino-ethanone]
200 nM | Cc1cccc(-c2cnc3ccn(CC(=O)N4CCOCC4)c3c2)c1 [Example 89, 1-Morpholino-2-[6-(m-tolyl)pyrrolo[3,2-b]pyridin-1-yl]ethanone]
